The subject of one data set is MCF7 cells. Description: Inhibition of the proliferation of MCF7 cells (Cell Titer-Glo). In kind it is cell-based. Particulars: Homo sapiens, MCF-7 cells, 72 hours, read-out: IC50 value of inhibition effect on the proliferation of MCF7 cells. As to the method: The object of this experiment was to determine the inhibition effect of the compounds on the proliferation activity of MCF7 cells, and the in vitro activity of the compounds was evaluated according to the IC50 value.
After incubation for 24 hours, the medium was removed, then 90 μl of the medium containing 2% FBS and 10 μl of the drug were added to each well, 10 μl of DMSO were added to the control group, and the blank group contained only 100 μl medium containing 2% FBS. The plate was gently shaken and incubated in a incubator at 37° C., 5% CO2. After 72 hours, 50 μl of mixed Cell Titer-Glo (Promega, Cat. No. G7571) were added to each well. The plate was shaken until the ingredients were well mixed, and placed at room temperature for 10 minutes, then the chemiluminescence signal value was determined.
The values of the chemiluminescence signals vs the logarithmic concentrations of the compounds were plotted using Graghpad Prism to obtain IC50 values.

Data set [1] can be described thus: Pharmacokinetics assay in BALB/C nude mice after intragastrical administration. In kind it is in vivo. The following applies: female, mouse, plasma, po, 3 mg/kg; for AUC: read-out: Area Under Curve AUC; for CL/F: read-out: Clearance CL/F (converted); for half-life: read-out: Half-Life t½ (converted); for MRT: read-out: Mean Residence Time MRT; for Cmax: read-out: Plasma Conc. Cmax. On the procedure: BALB/C nude mice were used as test animals. The drug concentration in plasma at different time points was determined by LC/MS/MS after intragastrical administration of the compounds of Examples 10, 14, 20, 21, 57, 68, 71, 73, 74, 76 and 89 to BALB/C nude mice. The pharmacokinetic behavior of the compounds of the present invention was studied and evaluated in BALB/C nude mice.
Ninety-nine (99) female BALB/C nude mice were equally divided into 11 groups, which were purchased from SINO-BRITSH SIPPR/BK LAB. ANIMAL LTD., CO, with Certificate No.: SCXK (Shanghai) 2008-0016.
The appropriate amount of each test compound was weighed, and successively added with 9% PEG400+0.5% tween 80+0.5% PVP+90% aqueous solution of 0.5% CMC.
After an overnight fast, 99 female BALB/C nude mice were equally divided into 11 groups, and administered the test compounds intragastrically at an administration volume of 0.2 mL/10 g.
Blood (0.1 mL) was sampled (3 mice at each time point) at 0.5, 1.0, 2.0, 4.0, 6.0, 8.0, 11.0 and 24.0 hours after administration. The samples were stored in heparinized test tubes, and centrifuged for 10 minutes at 3,500 rpm to separate the blood plasma. The plasma samples were stored at −20° C. The plasma concentration of the test compounds in BALB/C nude mice after intragastrical administration was determined by LC/MS/MS.
Pharmacokinetic parameters of the compounds of Examples 10, 14, 20, 21, 57, 68, 71, 73, 74, 76 and 89 of the present invention are shown below.

Take `CC1Cc2cc(O)ccc2C(c2c(F)cc(/C=C/C(=O)O)cc2F)N1CC(C)(C)F` [Example 3, (E)-3-(3,5-difluoro-4-((1S,3R/1R,3S)-2-(2-fluoro-2-methylpropyl)-6-hydroxy-3-methyl-1,2,3,4-tetrahydroisoquinolin-1-yl)phenyl)acrylic acid]: the IC50 in the data set with MCF7 cells was 2.12 nM. For orientation: AUC means concentration integrated over time. For orientation: half-life means the time in which the quantity being followed falls by half. What is called MRT is the average time that molecules of a dose stay in the body. As a reminder, the Cmax is the highest concentration seen after dosing. As for `Cc1ncc(-c2ccc3c(c2)CC(C)N(CC(C)(C)F)C3c2c(F)cc(/C=C/C(=O)O)cc2F)s1` [Example 10, (E)-3-(3,5-difluoro-4-((1S,3R/1R,3S)-2-(2-fluoro-2-methylpropyl)-3-methyl-6-(2-methylthiazol-5-yl)-1,2,3,4-tetrahydroisoquinolin-1-yl)phenyl)acrylic acid], the IC50 with MCF7 cells stood at 0.49 nM. Besides, in data set [1], the exposure (AUC) turned out to be 15400 ng·h/mL, the CL/F is 54 mL/min/kg, the half-life was 247 min and the MRT was 5.72 h. For the same compound, the peak concentration (Cmax) in data set [1] is 2600 ng/mL. Turning to `Cc1ncc(-c2ccc3c(c2)C[C@@H](C)N(CC(C)(C)F)[C@@H]3c2c(F)cc(/C=C/C(=O)O)cc2F)s1` [Example 11, (E)-3-(3,5-difluoro-4-((1S,3R)-2-(2-fluoro-2-methylpropyl)-3-methyl-6-(2-methylthiazol-5-yl)-1,2,3,4-tetrahydroisoquinolin-1-yl)phenyl)acrylic acid], the IC50 with MCF7 cells came to 0.08 nM. Regarding `CCn1cc(-c2ccc3c(c2)CC(C)N(CC(C)(C)F)C3c2c(F)cc(/C=C/C(=O)O)cc2F)cn1` [Example 20, (E)-3-(4-((1S,3R/1R,3S)-6-(1-ethyl-1H-pyrazol-4-yl)-2-(2-fluoro-2-methylpropyl)-3-methyl-1,2,3,4-tetrahydroisoquinolin-1-yl)-3,5-difluorophenyl)acrylic acid], the IC50 in the data set with MCF7 cells came to 0.03 nM. In data set [1], the exposure (AUC) was determined as 13000 ng·h/mL, the CL/F was 63.8 mL/min/kg, the half-life was 196 min and the mean residence time MRT was found to be 4.07 h. In addition, the Cmax in data set [1] turned out to be 3290 ng/mL. With `CCn1cc(-c2ccc3c(c2)C[C@@H](C)N(CC(C)(C)F)[C@@H]3c2c(F)cc(/C=C/C(=O)O)cc2F)cn1` [Example 21, (E)-3-(4-((1S,3R)-6-(1-ethyl-1H-pyrazol-4-yl)-2-(2-fluoro-2-methylpropyl)-3-methyl-1,2,3,4-tetrahydroisoquinolin-1-yl)-3,5-difluorophenyl)acrylic acid], in the data set with MCF7 cells, the IC50 was determined as 0.11 nM. In addition, in data set [1], the AUC was 10100 ng·h/mL, the CL/F was 82.7 mL/min/kg, the half-life was 151 min and the mean residence time MRT came out at 2.71 h. In addition, the highest concentration (Cmax) in data set [1] turned out to be 4300 ng/mL. For the compound `CCn1cc(-c2ccc3c(c2)C[C@H](C)N(CC(C)(C)F)[C@H]3c2c(F)cc(/C=C/C(=O)O)cc2F)cn1` [Example 22, (E)-3-(4-((1R,3S)-6-(1-ethyl-1H-pyrazol-4-yl)-2-(2-fluoro-2-methylpropyl)-3-methyl-1,2,3,4-tetrahydroisoquinolin-1-yl)-3,5-difluorophenyl)acrylic acid], the IC50 in the data set with MCF7 cells stood at 17.4 nM. Still for that read-out and setting: next, `C[C@@H]1Cc2cc(-c3cn[nH]c3)ccc2[C@@H](c2c(F)cc(/C=C/C(=O)O)cc2F)N1CC(C)(C)F` [Example 25, (E)-3-(3,5-difluoro-4-((1S,3R)-2-(2-fluoro-2-methylpropyl)-3-methyl-6-(1H-pyrazol-4-yl)-1,2,3,4-tetrahydroisoquinolin-1-yl)phenyl)acrylic acid]: 0.22 nM; `CC1Cc2cc(-c3cccnc3)ccc2C(c2c(F)cc(/C=C/C(=O)O)cc2F)N1CC(C)(C)F` [Example 28, (E)-3-(3,5-difluoro-4-((1S,3R/1R,3S)-2-(2-fluoro-2-methylpropyl)-3-methyl-6-(pyridin-3-yl)-1,2,3,4-tetrahydroisoquinolin-1-yl)phenyl)acrylic acid]: 3.71 nM; `CNC(=O)Nc1ccc2c(c1)CC(C)N(CC(C)(C)F)C2c1c(F)cc(/C=C/C(=O)O)cc1F` [Example 29, (E)-3-(3,5-difluoro-4-((1S,3R/1R,3S)-2-(2-fluoro-2-methylpropyl)-3-methyl-6-(3-methylureido)-1,2,3,4-tetrahydroisoquinolin-1-yl)phenyl)acrylic acid]: 4.82 nM. Still for that read-out and setting: the figure for `CC1Cc2cc(NC(=O)N(C)C)ccc2C(c2c(F)cc(/C=C/C(=O)O)cc2F)N1CC(C)(C)F` [Example 44, (E)-3-(4-((1S,3R/1R,3S)-6-(3,3-dimethylureido)-2-(2-fluoro-2-methylpropyl)-3-methyl-1,2,3,4-tetrahydroisoquinolin-1-yl)-3,5-difluorophenyl)acrylic acid] is 1.59 nM; for `CCc1nc(-c2ccc3c(c2)CC(C)N(CC(C)(C)F)C3c2c(F)cc(/C=C/C(=O)O)cc2F)no1` [Example 46, (E)-3-(4-((1S,3R/1R,3S)-6-(5-ethyl-1,2,4-oxadiazol-3-yl)-2-(2-fluoro-2-methylpropyl)-3-methyl-1,2,3,4-tetrahydroisoquinolin-1-yl)-3,5-difluorophenyl)acrylic acid] it is 3.66 nM. Regarding `CC1Cc2cc(-c3nnn(C)n3)ccc2C(c2c(F)cc(/C=C/C(=O)O)cc2F)N1CC(C)(C)F` [Example 51, (E)-3-(3,5-difluoro-4-((1S,3R/1R,3S)-2-(2-fluoro-2-methylpropyl)-3-methyl-6-(2-methyl-2H-tetrazol-5-yl)-1,2,3,4-tetrahydroisoquinolin-1-yl)phenyl)acrylic acid], the IC50 in the data set on MCF7 cells worked out at 3.07 nM.

Take `Cc1noc(-c2ccc3c(c2)CC(C)N(CC(C)(C)F)C3c2c(F)cc(/C=C/C(=O)O)cc2F)n1` [Example 53, (E)-3-(3,5-difluoro-4-((1S,3R/1R,3S)-2-(2-fluoro-2-methylpropyl)-3-methyl-6-(3-methyl-1,2,4-oxadiazol-5-yl)-1,2,3,4-tetrahydroisoquinolin-1-yl)phenyl)acrylic acid]: the IC50 with MCF7 cells is 15 nM.

For `C[C@H]1Cc2cc(-c3cnn(C)c3)ccc2[C@H](c2c(F)cc(/C=C/C(=O)O)cc2F)N1CC(C)(C)F` [Example 56, (E)-3-(3,5-difluoro-4-((1R,3S)-2-(2-fluoro-2-methylpropyl)-3-methyl-6-(1-methyl-1H-pyrazol-4-yl)-1,2,3,4-tetrahydroisoquinolin-1-yl)phenyl)acrylic acid], in the data set on MCF7 cells, the IC50 was 0.01 nM.

For `CC1Cc2cc(-c3ccc(-c4cnn(C)c4)nc3)ccc2C(c2c(F)cc(/C=C/C(=O)O)cc2F)N1CC(C)(C)F` [Example 61, (E)-3-(3,5-difluoro-4-((1S,3R/1R,3S)-2-(2-fluoro-2-methylpropyl)-3-methyl-6-(6-(1-methyl-1H-pyrazol-4-yl)pyridin-3-yl)-1,2,3,4-tetrahydroisoquinolin-1-yl)phenyl)acrylic acid], in the data set with MCF7 cells, the IC50 amounted to 3.58 nM.

As for `CC1Cc2c(oc3c(F)cccc23)C(c2c(F)cc(/C=C/C(=O)O)cc2F)N1CC(C)(C)F` [Example 84, (E)-3-(3,5-difluoro-4-((1R,3R/1S,3S)-8-fluoro-2-(2-fluoro-2-methylpropyl)-3-methyl-1,2,3,4-tetrahydrobenzofuro[2,3-c]pyridin-1-yl)phenyl)acrylic acid], the IC50 in the data set on MCF7 cells amounted to 4.21 nM.

Turning to `CC1Cc2c(oc3ccc(Br)cc23)C(c2c(F)cc(/C=C/C(=O)O)cc2F)N1CC(C)(C)F` [Example 87, (E)-3-(4-((1R,3R/1S,3S)-6-bromo-2-(2-fluoro-2-methylpropyl)-3-methyl-1,2,3,4-tetrahydrobenzofuro[2,3-c]pyridin-1-yl)-3,5-difluorophenyl)acrylic acid], the IC50 in the data set on MCF7 cells was found to be 9.27 nM. Still for that read-out and setting: the figure for `CC1Cc2c(oc3ccc(-c4cccnc4)cc23)C(c2c(F)cc(/C=C/C(=O)O)cc2F)N1CC(C)(C)F` [Example 90, (E)-3-(3,5-difluoro-4-((1R,3R/1S,3S)-2-(2-fluoro-2-methylpropyl)-3-methyl-6-(pyridin-3-yl)-1,2,3,4-tetrahydrobenzofuro[2,3-c]pyridin-1-yl)phenyl)acrylic acid] is 0.21 nM; for `CC(C)CN1C(C)Cc2c(ccc3[nH]ncc23)C1c1c(F)cc(/C=C/C(=O)O)cc1F` [Example 92, (E)-3-(3,5-difluoro-4-((6S,8R/6R,8S)-7-isobutyl-8-methyl-6,7,8,9-tetrahydro-3H-pyrazolo[4,3-f]isoquinolin-6-yl)phenyl)acrylic acid] it is 0.99 nM.

(Values after patent US10087191B2, “Piperidine derivative and preparation method and pharmaceutical use thereof” (Jiangsu Hengrui Medicine Co., Ltd., priority 2015, dated 2018).)
